Assay results taken from the NIST ThermoML archive (doi:10.1021/acs.jced.7b00107).
± gives the expanded uncertainty stated by the source.

Experiment: molar heat capacity at constant pressure
Conditions: 101.33 kPa, Crystal 1

Cl.NC12CC3CC(CC(C3)C1)C2 [1-aminoadamantane hydrochloride]
molar heat capacity at constant pressure [J/K/mol]
Conditions	Small (less than 1 g) adiabatic calorimetry	Small sample (50 mg) DSC
196.3 K	140.9 ± 0.8	–
197.31 K	141.5 ± 0.8	–
197.81 K	141.9 ± 0.8	–
199.31 K	142.8 ± 0.8	–
199.33 K	142.9 ± 0.8	–
200 K	143.3 ± 0.8	–
200.81 K	143.9 ± 0.8	–
201.34 K	144.3 ± 0.8	–
202.3 K	144.9 ± 0.8	–
203.36 K	145.7 ± 0.8	–
203.8 K	146.1 ± 0.8	–
205.3 K	147 ± 0.8	–
205.38 K	147.1 ± 0.8	–
206.8 K	148 ± 0.8	–
207.4 K	148.4 ± 0.8	–
208.29 K	149 ± 0.8	–
209.42 K	149.8 ± 0.8	–
209.79 K	150 ± 0.8	–
210 K	150.2 ± 0.8	–
211.28 K	151 ± 0.8	–
211.44 K	151.2 ± 0.8	–
212.77 K	152.1 ± 0.8	–
213.46 K	152.6 ± 0.8	–
214.26 K	153.1 ± 0.8	–
215.49 K	154.1 ± 0.8	–
215.75 K	154.2 ± 0.8	–
217.23 K	155.3 ± 0.9	–
217.51 K	155.5 ± 0.9	–
218.71 K	156.2 ± 0.9	–
219.54 K	156.9 ± 0.9	–
220 K	157.3 ± 0.8	–
220.19 K	157.2 ± 0.9	–
221.56 K	158.4 ± 0.9	–
221.67 K	158.4 ± 0.9	–
223.43 K	159.7 ± 0.9	–
223.59 K	159.8 ± 0.9	–
225.29 K	161.1 ± 0.9	–
225.62 K	161.3 ± 0.9	–
227.06 K	162.3 ± 0.9	–
227.64 K	162.8 ± 0.9	–
228.83 K	163.7 ± 0.9	–
229.67 K	164.3 ± 0.9	–
230 K	164.5 ± 0.9	–
230.6 K	165.1 ± 0.9	–
231.7 K	165.8 ± 0.9	–
232.37 K	166.3 ± 0.9	–
233.72 K	167.3 ± 0.9	–
234.13 K	167.6 ± 0.9	–
235.75 K	169 ± 0.9	–
235.89 K	168.9 ± 0.9	–
237.64 K	170.4 ± 0.9	–
237.78 K	170.3 ± 0.9	–
239.4 K	171.9 ± 0.9	–
239.81 K	172.1 ± 0.9	–
240 K	171.8 ± 0.9	–
241.15 K	173.6 ± 0.9	–
241.84 K	174.1 ± 0.9	–
242.89 K	174.2 ± 0.9	–
243.87 K	174.6 ± 0.9	–
244.64 K	175.3 ± 0.9	–
245.91 K	176.1 ± 1	–
246.38 K	176.6 ± 1	–
247.94 K	177.7 ± 1	–
248.13 K	177.9 ± 1	–
249.87 K	179.2 ± 1	–
249.97 K	179.2 ± 1	–
250 K	179.3 ± 1	–
251.6 K	180.5 ± 1	–
252 K	180.7 ± 1	–
253.34 K	181.7 ± 1	–
254.03 K	182.2 ± 1	–
255.07 K	183.1 ± 1	–
256.06 K	183.7 ± 1	–
256.8 K	184.4 ± 1	–
258.09 K	185.3 ± 1	–
258.52 K	185.6 ± 1	–
260 K	186.8 ± 1	–
260.12 K	186.8 ± 1	–
260.24 K	186.9 ± 1	–
262.15 K	188.4 ± 1	–
264.19 K	189.9 ± 1	–
266.22 K	191.4 ± 1	–
268.25 K	193.1 ± 1	–
270 K	194.3 ± 1.1	–
270.28 K	194.5 ± 1	–
272.31 K	196.1 ± 1.1	–
274.35 K	197.7 ± 1.1	–
276.38 K	199.3 ± 1.1	–
278.41 K	200.9 ± 1.1	–
280 K	202.1 ± 1.1	–
280.44 K	202.5 ± 1.1	–
282.47 K	204 ± 1.1	–
284.51 K	205.6 ± 1.1	–
286.53 K	207.1 ± 1.1	–
288.56 K	208.7 ± 1.1	–
290 K	209.9 ± 1.1	–
290.6 K	210.3 ± 1.1	–
292.63 K	211.9 ± 1.1	–
294.66 K	213.5 ± 1.1	–
296.69 K	215 ± 1.1	–
298.15 K	216.2 ± 1.2	–
298.72 K	216.6 ± 1.2	–
300 K	217.6 ± 1.2	–
300.75 K	218.1 ± 1.2	–
302.78 K	219.8 ± 1.2	–
304.81 K	221.3 ± 1.2	–
306.84 K	222.9 ± 1.2	–
308.88 K	224.5 ± 1.2	–
310 K	225.3 ± 1.2	222.6 ± 9.4
310.91 K	226 ± 1.2	–
311.7 K	–	223.7 ± 9.5
312.94 K	227.6 ± 1.2	–
313.3 K	–	224.7 ± 9.5
314.98 K	229.1 ± 1.2	–
315 K	–	226.1 ± 9.6
316.6 K	–	227.2 ± 9.6
317.01 K	230.8 ± 1.2	–
318.2 K	–	228.5 ± 9.7
319.04 K	232.3 ± 1.2	–
319.9 K	–	229.5 ± 9.7
320 K	233 ± 1.2	–
321.08 K	233.9 ± 1.2	–
321.5 K	–	230.9 ± 9.8
323.1 K	–	231.9 ± 9.8
323.11 K	235.4 ± 1.2	–
324.8 K	–	233.5 ± 9.9
325.15 K	237 ± 1.2	–
326.4 K	–	234.8 ± 10
327.19 K	238.6 ± 1.3	–
328 K	–	236 ± 10
329.23 K	240.1 ± 1.3	–
329.6 K	–	237.3 ± 10
330 K	240.7 ± 1.3	–
331.2 K	–	238.4 ± 10
331.26 K	241.7 ± 1.3	–
332.8 K	–	239.6 ± 10
333.3 K	243.3 ± 1.3	–
334.4 K	–	241.2 ± 10
335.34 K	244.9 ± 1.3	–
336 K	–	242.3 ± 10
337.38 K	246.5 ± 1.3	–
337.6 K	–	243.3 ± 10
339.3 K	–	244.7 ± 10
339.42 K	248.1 ± 1.3	–
340 K	248.6 ± 1.3	–
340.9 K	–	246.2 ± 10
341.46 K	249.6 ± 1.3	–
342.5 K	–	247.4 ± 10
343.5 K	251.3 ± 1.3	–
344.1 K	–	248.6 ± 11
345.54 K	252.9 ± 1.3	–
345.7 K	–	249.8 ± 11
347.2 K	–	251.1 ± 11
347.58 K	254.6 ± 1.3	–
348.8 K	–	252.4 ± 11
349.62 K	256.2 ± 1.3	–
350 K	256.5 ± 1.3	–
350.4 K	–	253.7 ± 11
351.66 K	257.8 ± 1.4	–
352 K	–	254.9 ± 11
353.6 K	–	256.1 ± 11
353.7 K	259.4 ± 1.4	–
355.2 K	–	257.6 ± 11
355.74 K	261.1 ± 1.4	–
356.8 K	–	259 ± 11
357.78 K	262.8 ± 1.4	–
358.4 K	–	260.3 ± 11
359.82 K	264.4 ± 1.4	–
360 K	264.5 ± 1.4	261.8 ± 11
361.6 K	–	263.1 ± 11
361.86 K	266 ± 1.4	–
363.2 K	–	264.7 ± 11
363.9 K	267.5 ± 1.4	–
364.8 K	–	265.8 ± 11
365.94 K	269.3 ± 1.4	–
366.3 K	–	267.1 ± 11
367.9 K	–	268.2 ± 11
367.98 K	270.9 ± 1.4	–
369.5 K	–	269.4 ± 11
370 K	272.5 ± 1.4	–
371.1 K	–	270.6 ± 12
372.7 K	–	271.9 ± 12
374.3 K	–	273.2 ± 12
375.9 K	–	274.4 ± 12
377.4 K	–	275.5 ± 12
379 K	–	276.5 ± 12
380 K	–	280 ± 12
380.6 K	–	277.8 ± 12
382.2 K	–	279 ± 12
383.8 K	–	280.3 ± 12
385.4 K	–	281.2 ± 12
386.9 K	–	282.7 ± 12
388.5 K	–	284.1 ± 12
390 K	–	288 ± 13
390.1 K	–	285 ± 12
391.7 K	–	286.5 ± 12
393.3 K	–	287.4 ± 12
394.9 K	–	288.7 ± 12
396.4 K	–	289.9 ± 12
398 K	–	291.3 ± 12
399.6 K	–	292.6 ± 12
400 K	–	296 ± 13
401.2 K	–	293.6 ± 12
402.8 K	–	294.7 ± 12
404.4 K	–	296.2 ± 13
405.9 K	–	297.3 ± 13
407.5 K	–	298.6 ± 13
409.1 K	–	299.8 ± 13
410 K	–	304 ± 13
410.7 K	–	301 ± 13
412.3 K	–	302.3 ± 13
413.8 K	–	303.9 ± 13
415.4 K	–	305.3 ± 13
417 K	–	306.5 ± 13
418.6 K	–	307.7 ± 13
420 K	–	312 ± 13
420.2 K	–	308.7 ± 13
421.7 K	–	309.9 ± 13
423.3 K	–	311.5 ± 13
424.9 K	–	312.6 ± 13
426.5 K	–	313.6 ± 13
428.1 K	–	314.7 ± 13
429.7 K	–	315.8 ± 13
430 K	–	319 ± 14
431.2 K	–	317 ± 14
432.8 K	–	318.4 ± 14
434.4 K	–	319.9 ± 14
436 K	–	321 ± 14
437.6 K	–	322.3 ± 14
439.1 K	–	323.5 ± 14
440 K	–	327 ± 14
440.7 K	–	324.8 ± 14
442.3 K	–	326 ± 14
443.9 K	–	326.9 ± 14
445.5 K	–	328 ± 14
447 K	–	329.5 ± 14
448.6 K	–	330.4 ± 14
450 K	–	334 ± 14
450.2 K	–	331.6 ± 14
451.8 K	–	332.9 ± 14
453.4 K	–	334.4 ± 14
454.9 K	–	335.7 ± 14
456.5 K	–	336.7 ± 14
458.1 K	–	337.3 ± 14
459.7 K	–	338.7 ± 14
460 K	–	342 ± 15
461.3 K	–	339.3 ± 14
462.8 K	–	340.6 ± 14
464.4 K	–	341.7 ± 14
466 K	–	343 ± 15
467.6 K	–	344.1 ± 15
469.2 K	–	345 ± 15
470 K	–	349 ± 15
470.7 K	–	346.4 ± 15
